Structures can show the parent of a compound that is named as a salt.
Key:
systolic blood pressure = assay: Antihypertensive activity, reduction in systolic blood pressure, single oral medication, unanesthetized spontaneous hypertensive rat; format: in vivo; conditions: for Antihypertensive activity SH Rat AHD40 (single oral dose required to induce a 40 mm. average reduction in systolic blood pressure) / Actual reduction in blood pressure observed at the indicated dose: P.O.; for Antihypertensive activity SH Rat AHD40 (single oral dose required to induce a 40 mm. average reduction in systolic blood pressure): unanesthetized SH rat
Description: Antihypertensive activity was determined on the basis of the observed reduction in systolic blood pressure measured according to the method of H. Kersten et al., J. Lab. and Clin. Med. 32, 1090 (1947) following a single oral medication in the unanesthetized spontaneous hypertensive rat described by Okamato et al., Japan Circulation J. 27, 282 (1963).
^a AHD40 = single oral dose required to induce a 40 mm. average

blood pressure = assay: Antihypertensive activity, sustained lowering of blood pressure, repeated oral medication, unanesthetized trained renal hypertensive dog; format: in vivo; conditions: tid.; for Actual percentage reduction in blood pressure observed at the indicated dose: 0.125 mg./kg.
Description: Antihypertensive activity was also judged on the basis of sustained reduction of blood pressure observed in the unanesthetized trained renal hypertensive dog following repeated oral medication according to the procedure described by Lape et al., Arch.
^b MED10 = minimum repeated oral daily dose required to effect a

hind limb vasculature = assay: Vasodilator activity, perfusion pressure in hind limb vasculature of anesthetized dog; format: in vivo; conditions: intraarterial, anesthetized dog hind limb; for ED50: Canis lupus familiaris, read-out: Vasodilator activity Dog-Leg Perfusion AED50 (approximate intraarterial dose for 50 reduction in perfusion pressure)
Description: (§1) Vasodilator activity was judged on the basis of observed reduction in perfusion pressure in the hind limb vasculature of the anesthetized dog determined according to the procedure described by Jandhyala et al., European J. Pharm. 17, 357 (1972), and also on the basis of percent reduction in perfusion pressure as measured in the isolated rabbit ear artery according to the method described by De LaLande et al., Aust. J. Exp. Biol. Med. Sci. 43, 639 (1965).
^c AED50 = approximate intraarterial dose required to cause a 50

[1] = system: isolated rabbit ear artery; assay: Vasodilator activity, perfusion pressure in isolated rabbit ear artery
Description: as §1
^d Vasodilation is expressed as the percentage reduction in perfusion

β-adrenergic = β-adrenergic blocking activity, inhibition of isoproterenol-elicited heart rate increase in pentobarbitalized dog; format: in vivo; conditions: i.v.; for Dog β-blockade AED50 (approximate intravenous dose for 50% inhibition of isoproterenol-elicited heart rate increase): pentobarbitalized dog
Description: The β-adrenergic blocking activity was determined in the pentobarbitalized dog as judged by the ability of the test compound to inhibit the elevation in heart rate elicited by a 0.5 mcg./kg. i.v. injection of isoproterenol.
^e AED50 = approximate intravenous dose required to cause 50%

[2] = Acute intravenous and oral toxicity in mice; format: in vivo
Description: Acute intravenous and oral toxicity in mice was determined for the compound of Example 2G as follows: The compound was dissolved in distilled water and administered as the base at a volume of 10 ml./kg. for the i.v. ALD50 or 10-40 ml./kg. for the p.o. ALD50. The compound was administered in graded doses to groups of three mice each (Swiss-Webster strain males weighing 20±2 g.). Mortality occurred within 1 minute after i.v. administration and within 10 minutes after oral administration. […] The i.v. ALD50 was 75 mg./kg. and the p.o. ALD50 was 1500 mg./kg.

Ba++-induced arrhythmia = assay: Conversion of Ba++-induced arrhythmia in rabbits; format: in vivo; design: key: active (A); inactive (I)
Description: (§2) The test procedures were carried out as follows.
Adult rabbits or either sex weighing between 1.7 and 2.3 kg. were anesthetized with 30 to 35 mg./kg. Na-pentobarbital i.v. via a marginal ear vein. Monoplar ECG pin electrodes were inserted for a lead II display on a Model 5 Grass Polygraph using standard electrocardiographic procedures. A 23 ga. hypodermic needle, attached via a polyethylene catheter to a 10 cc. syringe, was inserted into the same vein as was used for anesthesia. A BaCl2.2H2 O solution in saline was then infused at a constant volume of 0.2 cc/min. from a Harvard Apparatus Model 600 infusion pump. This infusion was not stopped until termination of the experiment. In some studies barium chloride in distilled water was used without detectable differences. The standard rate of BaCl2.2H2 O infusion was established at 0.3 mg./kg./min. (1.2×10^-6 M/kg./min.), and the concentration was adjusted appropriately in each case to accommodate the weight of the rabbit.
When the desired arrhythmia was established, the test compound was introduced as a water or saline solution into the marginal ear vein of the unused ear. The volume used was between 0.5 and 2.0 cc./kg. and was injected as a bolus over approximately 30 seconds. Deviations from standard vehicle, rate of injection and total volume administered were at the discretion of the operator. The standard initial dose of an unknown compound on the first rabbit was 5×10^-5 M/kg. In general, two to three rabbits were used to determine anti-arrhythmic activity and the dose range of activity; multiple doses were administered. Once activity and dose was indicated, two additional rabbits were employed to confirm anti-arrhythmic activity against a multifocal tachycardia.

[3] = system: Ouabain-induced arrhythmia; assay: Conversion of ouabain-induced arrhythmia in dogs; format: in vivo, mongrel dogs; design: key: active (A); inactive (I)
Description: as §2
Na-pentobarbital supplements were given i.v. as needed.
Both parameters were printed out on a Grass polygraph.

Row | SMILES | Renal Hypertensive Dog MED10 (minimum repeated oral daily dose for sustained lowering of blood pressure of 10% or greater) (blood pressure) [mg/kg] | Actual reduction in blood pressure observed at the indicated dose (systolic blood pressure; 20 mg./kg.) [mm. Hg] | Antihypertensive activity SH Rat AHD40 (single oral dose required to induce a 40 mm. average reduction in systolic blood pressure) (systolic blood pressure) [mg/kg] | Actual percentage reduction in blood pressure observed at the indicated dose (blood pressure) [%] | ED50 (hind limb vasculature) [mg/kg] | Actual percentage inhibition of heart rate increase above control level observed at the indicated dose (β-adrenergic; 1.0 mg./kg.) [%] | Dog β-blockade AED50 (approximate intravenous dose for 50% inhibition of isoproterenol-elicited heart rate increase) (β-adrenergic) | Actual reduction in blood pressure observed at the indicated dose (systolic blood pressure; 50 mg./kg.) [mm. Hg] | Rabbit Ear Artery vasodilation (percentage reduction in perfusion pressure from control level) ([1]; 5 × 10^-5 M, 50 µM) [%] | Conversion of Ba++-induced Arrhythmia (Ba++-induced arrhythmia; 2.5 × 10^-6 M/kg.) | other results
1 | COc1ccc(CCC(C)NCC(O)c2ccc(O)c([S+](C)[O-])c2)cc1 (stereo not drawn) [Example 2G, 4-hydroxy-α-<{[3-(4-methoxyphenyl)-1-methylpropyl]amino}methyl>-3-(methylsulfinyl)benzenemethanol acetate salt] | 0.0316 |  |  |  |  |  |  |  |  |  | Antihypertensive activity SH Rat AHD40 (single oral dose required to induce a 40 mm. average reduction in systolic blood pressure) (systolic blood pressure; acetate salt): 2.0 mg/kg; Antihypertensive activity (in words) (systolic blood pressure; standard pharmacological tests on representative examples): high antihypertensive activity; Vasodilator activity Dog-Leg Perfusion AED50 (approximate intraarterial dose for 50 reduction in perfusion pressure) (hind limb vasculature; acetate salt): 0.5 mg/kg; Rabbit Ear Artery vasodilation (percentage reduction in perfusion pressure from control level) ([1]; 5 × 10^-5 M, 50 µM, acetate salt): 50%; Dog β-blockade AED50 (approximate intravenous dose for 50% inhibition of isoproterenol-elicited heart rate increase) (β-adrenergic; acetate salt): 0.025 mg/kg; Time of mortality after i.v. administration ([2]; i.v.): ≤ 1 min; Symptoms of acute intoxication for the fatalities ([2]; mouse, in vivo): atoxia, loss of righting reflux, clonic convulsions and dyspnea followed by respiratory arrest; Untoward symptoms in survivors ([2]; mouse, in vivo): no untoward symptoms observed for up to 7 days for the survivors; LD50 ([2]; mouse, in vivo, iv): 75 mg/kg; LD50 ([2]; mouse, in vivo, po): 1500 mg/kg; Time of mortality after oral administration ([2]; oral): ≤ 10 min
2 | COc1ccc(CCC(C)(C)NCC(O)c2ccc(O)c([S+](C)[O-])c2)cc1 (stereo not drawn) [Example 18D, α-<{[1,1-dimethyl-3-(4-methoxyphenyl)propyl]amino}methyl>-4-hydroxy-3-(methylsulfinyl)benzenemethanol acetate salt] | > 0.125 | -26 | > 20.0 | 0 | 0.5 | 100 | < 1.0 mg/kg |  |  |  | Rabbit Ear Artery vasodilation (percentage reduction in perfusion pressure from control level) ([1]; 1 × 10^-4 M, 100 µM): 42%; Conversion of Ba++-induced Arrhythmia (Ba++-induced arrhythmia; 5 × 10^-6 M/kg.): A
3 | CC(CCc1ccc(O)cc1)NCCc1ccc(O)c([S+](C)[O-])c1 (single isomer, unassigned) [Example 30E, 4-<2-{[3-(4-hydroxy-phenyl)-1-mehylpropyl]amino}ethyl>-2-(methylsulfinyl)phenol hydrochloride] |  |  | > 50 |  |  |  | ca. 0.50 mg./kg. | -3 |  |  | Conversion of Ouabain-induced Arrhythmia ([3]; 1 × 10^-5 M/kg.): A; Conversion of Ba++-induced Arrhythmia (Ba++-induced arrhythmia; 2 × 10^-5 M/kg.): A
4 | CC(=O)O.CC(CCc1ccccc1)NCC(O)c1ccc(O)c([S+](C)[O-])c1 (stereo not drawn) [Example 19C, 4-hydroxy-α-{[(1-methyl-3-phenylpropyl)amino]methyl}-3-(methylsulfinyl)benzenemethanol acetate salt] | > 0.125 |  | 20.0 | 0 | 0.5 |  | < 0.025 mg/kg |  | 50 | A | Actual percentage inhibition of heart rate increase above control level observed at the indicated dose (β-adrenergic; 0.025 mg./kg.): 67%; Conversion of Ouabain-induced Arrhythmia ([3]; 5 × 10^-5 M/kg.): A
5 | COc1ccc(CCC(C)(C)NCCc2ccc(O)c([S+](C)[O-])c2)cc1 (stereo not drawn) [Example 34C, 4-<2-{[3-(4-methoxyphenyl)-1,1-dimethylpropyl]amino}ethyl>-2-(methylsulfinyl)phenol hydrochloride] |  |  | > 50 |  |  | 40 | > 1.0 mg/kg | -8 |  | A | Conversion of Ouabain-induced Arrhythmia ([3]; 2 × 10^-5 M/kg.): A
6 | CC(=O)O.C[S+]([O-])c1cc(C(O)CNC(C)(C)CCc2ccccc2)ccc1O (stereo not drawn) [Example 17C, α-{[(1,1-dimethyl-3-phenylpropyl)amino]methyl}-4-hydroxy-3-(methylsulfinyl)benzenemethanol acetate salt] |  | -37 | > 20.0 |  | 0.5 |  | 0.05 mg/kg |  | 50 | A | Conversion of Ouabain-induced Arrhythmia ([3]; 5 × 10^-6 M/kg.): A

Source: patent publication US4374149A, “α-{[(Arylalkyl)amino]alkyl}-4-hydroxy-3-(lower-alkylsul finyl)benzenemethanols” (Sterling Drug Inc., priority 1978, dated 1983)
